Assay results reported in ChEMBL document CHEMBL1147791, “Polyamines and the NMDA receptor: modifying intrinsic activities with aromatic substituents” (Bioorg Med Chem Lett, 2006).

Experiments:
Format in all cases: protein-complex assay
Glutamate NMDA receptor [1] = test: Inhibition of [3H]MK-801 binding to rat NMDA receptor
[2] = target: T1, Glutamate NMDA receptor (Rattus norvegicus) (UniProt P35439+Q00959+Q00960+Q00961+Q62645+Q8VHN2+Q9R1M7); test: Attenuation at rat NMDA receptor assessed as ratio of inhibition of [3H]MK-801 binding to NMDA receptor in presence to absence of spermine
[3] = target: T1, Glutamate NMDA receptor (Rattus norvegicus); test: (§1) Stimulation of [3H]MK-801 binding to rat NMDA receptor
Glutamate NMDA receptor [4] = test: as §1

Question: With `NCCCNCCCCN(CCCN)Cc1ccc2ccccc2c1` as the molecule, how does the IC50 (Glutamate NMDA receptor [1]) read?
Answer: Its IC50 is 58 µM.

Question: What about the Ratio IC50 [2] of the same molecule?
Answer: Its Ratio IC50 is 1.45.

Question: For `N=C(N)NCCCN(CCCCN(CCCN)CCCc1ccccc1)CCCc1ccccc1`, which IC50 (Glutamate NMDA receptor [1]) is on record?
Answer: The IC50 was 13 µM.

Question: What about the Ratio IC50 [2] of the same molecule?
Answer: Its Ratio IC50 is 1.5.

Question: How did the IC50 (Glutamate NMDA receptor [1]) turn out when `c1ccc(CCCNCCCNCCCCNCCCNCCCc2ccccc2)cc1` was run?
Answer: Its IC50 is 7.4 µM.

Question: And the Ratio IC50 [2]?
Answer: Its Ratio IC50 is 0.92.

Question: How did the IC50 (Glutamate NMDA receptor [1]) turn out when `NCCCCN(CCCN)Cc1ccc2ccccc2c1` was run?
Answer: Its IC50 is 9.8 µM.

Question: And the Ratio IC50 [2]?
Answer: The Ratio IC50 was 13.1.

Question: For `NCCCCN(CCCN)Cc1ccccc1`, which IC50 (Glutamate NMDA receptor [1]) is on record?
Answer: The IC50 was greater than 300 µM.

Question: `O=C(NCCCCNCCCNC(=O)c1ccccc1)c1ccccc1` was tested. Which IC50 (Glutamate NMDA receptor [1]) did it give?
Answer: Its IC50 is greater than 300 µM.

Question: What does the source list for `NCCCN(CCCCN(CCCN)Cc1ccc2ccccc2c1)Cc1ccc2ccccc2c1`?
Answer: IC50 (Glutamate NMDA receptor [1]): 9.1 µM; Ratio IC50 [2]: 2.2

Question: What does the source list for `O=C(NCCCCNCCCNC(=O)OCc1ccccc1)OCc1ccccc1`?
Answer: IC50 (Glutamate NMDA receptor [1]): 56 µM; Ratio IC50 [2]: > 10

Question: `N=C(N)NCCCN(CCCCN(CCCNC(=N)N)CCCc1ccccc1)CCCc1ccccc1` was tested. Which IC50 (Glutamate NMDA receptor [1]) did it give?
Answer: The IC50 was 11.2 µM.

Question: What about the Ratio IC50 [2] of the same molecule?
Answer: The Ratio IC50 was 0.63.

Question: What does the source list for `NCCCN(CCCCN(CCCN)Cc1ccccc1)Cc1ccccc1`?
Answer: IC50 (Glutamate NMDA receptor [1]): 38 µM; Ratio IC50 [2]: 4.3

Question: Which results are given for `c1ccc(CCCNCCCCN(CCCNCCCc2ccccc2)CCCc2ccccc2)cc1`?
Answer: IC50 (Glutamate NMDA receptor [1]): 9.5 µM; Ratio IC50 [2]: 2.03

Question: What does the source list for `c1ccc(CNCCCNCCCCNCCCNCc2ccccc2)cc1`?
Answer: IC50 (Glutamate NMDA receptor [1]): 6.12 µM; Ratio IC50 [2]: 2.27

Question: With `NCCCCN(CCCN)C(=O)OCc1ccccc1` as the molecule, how does the IC50 (Glutamate NMDA receptor [1]) read?
Answer: The IC50 was 17.6 µM.

Question: And the Ratio IC50 [2]?
Answer: Its Ratio IC50 is 67.

Question: How did the IC50 (Glutamate NMDA receptor [1]) turn out when `CC(C)(C)OC(=O)N(CCCN)CCCCN(CCCN)C(=O)OC(C)(C)C` was run?
Answer: The IC50 was 6680 µM.

Question: What about the Ratio IC50 [2] of the same molecule?
Answer: Its Ratio IC50 is 5.3.

Question: `O=C(Cc1ccccc1)NCCCNCCCCNCCCNC(=O)Cc1ccccc1` was tested. Which IC50 (Glutamate NMDA receptor [1]) did it give?
Answer: The IC50 was 103 µM.

Question: What about the Ratio IC50 [2] of the same molecule?
Answer: Its Ratio IC50 is greater than 10.

Question: Which IC50 (Glutamate NMDA receptor [1]) does the source give for `NCCCN(CCCCN(CCCN)C(=O)OCc1ccccc1)C(=O)OCc1ccccc1` here?
Answer: The IC50 was 17.2 µM.

Question: What about the Ratio IC50 [2] of the same molecule?
Answer: The Ratio IC50 was 4.7.

Question: `NCCCNCCCCN(CCCN)Cc1ccccc1` was tested. Which IC50 (Glutamate NMDA receptor [1]) did it give?
Answer: Its IC50 is greater than 300 µM.

Question: And the Activity [3]?
Answer: Its Activity is 28%.

Question: What about the EC50 (Glutamate NMDA receptor [4]) of the same molecule?
Answer: Its EC50 is 2.7 µM.

Question: Which IC50 (Glutamate NMDA receptor [1]) does the source give for `c1ccc2c(CNCCCCNCCCNCc3cccc4ccccc34)cccc2c1` here?
Answer: The IC50 was 4.37 µM.

Question: And the Ratio IC50 [2]?
Answer: The Ratio IC50 was 2.2.

Question: For `c1ccc2cc(CN(CCCNCCCCNCCCN(Cc3ccc4ccccc4c3)Cc3ccc4ccccc4c3)Cc3ccc4ccccc4c3)ccc2c1`, which IC50 (Glutamate NMDA receptor [1]) is on record?
Answer: Its IC50 is 8.7 µM.

Question: What about the Ratio IC50 [2] of the same molecule?
Answer: The Ratio IC50 was 1.32.

Question: `NCCCCN(CCCN)CCCc1ccccc1` was tested. Which IC50 (Glutamate NMDA receptor [1]) did it give?
Answer: The IC50 was greater than 300 µM.

Question: With `NCCCN(CCCCN(CCCN)CCCc1ccccc1)CCCc1ccccc1` as the molecule, how does the IC50 (Glutamate NMDA receptor [1]) read?
Answer: Its IC50 is 26.7 µM.

Question: And the Ratio IC50 [2]?
Answer: Its Ratio IC50 is 2.6.

Question: Which IC50 (Glutamate NMDA receptor [1]) does the source give for `CC(C)NCCCN(CCCCN(CCCN)Cc1ccc2ccccc2c1)Cc1ccc2ccccc2c1` here?
Answer: Its IC50 is 14 µM.

Question: And the Ratio IC50 [2]?
Answer: The Ratio IC50 was 1.96.

Question: What does the source list for `c1ccc2cc(CN(CCCCNCCCN(Cc3ccc4ccccc4c3)Cc3cccc4ccccc34)Cc3cccc4ccccc34)ccc2c1`?
Answer: IC50 (Glutamate NMDA receptor [1]): 14.3 µM; Ratio IC50 [2]: 1.66

Question: Which IC50 (Glutamate NMDA receptor [1]) does the source give for `NCCCN(CCCCN(CCCNCCCc1ccccc1)CCCc1ccccc1)CCCc1ccccc1` here?
Answer: Its IC50 is 13.1 µM.

Question: What about the Ratio IC50 [2] of the same molecule?
Answer: Its Ratio IC50 is 1.44.

Question: With `c1ccc(CCCN(CCCNCCCCNCCCN(CCCc2ccccc2)CCCc2ccccc2)CCCc2ccccc2)cc1` as the molecule, how does the IC50 (Glutamate NMDA receptor [1]) read?
Answer: Its IC50 is 3.9 µM.

Question: And the Ratio IC50 [2]?
Answer: The Ratio IC50 was 1.58.

Question: `c1ccc(CCCNCCCN(CCCCN(CCCNCCCc2ccccc2)CCCc2ccccc2)CCCc2ccccc2)cc1` was tested. Which IC50 (Glutamate NMDA receptor [1]) did it give?
Answer: The IC50 was 8.4 µM.

Question: What about the Ratio IC50 [2] of the same molecule?
Answer: The Ratio IC50 was 1.49.

Question: Which results are given for `NCCCCN(CCCN)C(=O)c1ccccc1`?
Answer: IC50 (Glutamate NMDA receptor [1]): 82 µM; Ratio IC50 [2]: > 10

Question: How did the IC50 (Glutamate NMDA receptor [1]) turn out when `NCCCCN(CCCN)C1c2ccccc2CCc2ccccc21` was run?
Answer: The IC50 was 14.2 µM.

Question: And the Ratio IC50 [2]?
Answer: Its Ratio IC50 is 5.1.

Question: Which IC50 (Glutamate NMDA receptor [1]) does the source give for `c1ccc2cc(CNCCCNCCCCNCCCNCc3ccc4ccccc4c3)ccc2c1` here?
Answer: Its IC50 is 4.7 µM.

Question: And the Ratio IC50 [2]?
Answer: The Ratio IC50 was 2.84.

Question: `NCCCNCCCCNCCCNCCCc1ccccc1` was tested. Which IC50 (Glutamate NMDA receptor [1]) did it give?
Answer: The IC50 was 25.6 µM.

Question: What about the Ratio IC50 [2] of the same molecule?
Answer: The Ratio IC50 was 1.43.

Question: Which results are given for `CC(C)NCCCN(CCCCN(CCCNC(C)C)Cc1ccc2ccccc2c1)Cc1ccc2ccccc2c1`?
Answer: IC50 (Glutamate NMDA receptor [1]): 44.6 µM; Ratio IC50 [2]: 0.48

Question: Which IC50 (Glutamate NMDA receptor [1]) does the source give for `c1ccc(CNCCCCNCCCNCc2ccccc2)cc1` here?
Answer: The IC50 was 6.2 µM.

Question: And the Ratio IC50 [2]?
Answer: Its Ratio IC50 is 5.9.

Question: `CC(C)(C)OC(=O)N(CCCN)CCCCN` was tested. Which IC50 (Glutamate NMDA receptor [1]) did it give?
Answer: The IC50 was greater than 300 µM.

Question: How did the IC50 (Glutamate NMDA receptor [1]) turn out when `NCCCNCCCCN(CCCN)CCCc1ccccc1` was run?
Answer: The IC50 was 182 µM.

Question: And the Ratio IC50 [2]?
Answer: Its Ratio IC50 is 0.93.

Question: What about the Activity [3] of the same molecule?
Answer: Its Activity is 26%.

Question: What about the EC50 (Glutamate NMDA receptor [4]) of the same molecule?
Answer: The EC50 was 1.8 µM.
